# Laboratory results published in ChEMBL document CHEMBL1201862, “PubChem BioAssay data set” (2004).
# Activity calls are given as the source filed them.
# What was measured:
# [1] = cytotoxicity in HMLE control line with eGFP shRNA, dose response, counter-screen for HMLE_sh_ECad selective toxicity project, cell-based, HMLE_sh_eGFP, luminescence (AID 463074); type: functional, Homo sapiens;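 also: HMLE human mammary epithelial cells expressing control shRNA against eGFP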
# [2] = Luminescence Cell-Based Dose Retest to Confirm Inhibitors of Cancer Stem Cells. [Related pubchem assays (depositor defined):AID2717, AID2721]; type: functional; conditions: Homo sapiens
# [3] = Vero E6 cell cytotoxicity, dose response, cytotoxicity control for non-replicating M. tuberculosis project, secondary assay (AID 492998); type: functional, VeroE6; conditions: Vero C1008
# Exodeoxyribonuclease V = target: T1, Exodeoxyribonuclease V (Escherichia coli (strain K12), UniProt P04993+P07648+P08394); assay: E. coli RecBCD inhibitors, dose response, counter-screen for AddAB inhibitor project, absorbance, V66 E. coli, mutant T4 phage (AID 492957); type: functional, cell-based, Escherichia coli str. K-12 substr. MG1655
# T1 sequence (P04993 whole entry): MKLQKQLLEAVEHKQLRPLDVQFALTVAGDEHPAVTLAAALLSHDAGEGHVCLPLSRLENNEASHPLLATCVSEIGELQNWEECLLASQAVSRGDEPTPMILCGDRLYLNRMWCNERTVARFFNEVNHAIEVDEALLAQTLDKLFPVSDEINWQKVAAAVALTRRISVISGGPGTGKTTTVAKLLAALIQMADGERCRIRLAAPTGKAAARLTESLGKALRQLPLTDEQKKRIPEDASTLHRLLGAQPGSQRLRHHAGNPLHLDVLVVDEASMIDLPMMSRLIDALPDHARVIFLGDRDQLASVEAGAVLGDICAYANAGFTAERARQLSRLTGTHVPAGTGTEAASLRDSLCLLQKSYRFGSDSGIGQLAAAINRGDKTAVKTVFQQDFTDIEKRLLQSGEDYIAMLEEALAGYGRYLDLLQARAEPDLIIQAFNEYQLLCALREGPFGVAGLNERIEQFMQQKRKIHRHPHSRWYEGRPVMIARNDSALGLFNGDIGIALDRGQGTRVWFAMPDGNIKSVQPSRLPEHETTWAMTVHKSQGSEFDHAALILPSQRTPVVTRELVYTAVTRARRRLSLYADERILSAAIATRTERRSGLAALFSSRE
# T1 sequence (P07648 whole entry): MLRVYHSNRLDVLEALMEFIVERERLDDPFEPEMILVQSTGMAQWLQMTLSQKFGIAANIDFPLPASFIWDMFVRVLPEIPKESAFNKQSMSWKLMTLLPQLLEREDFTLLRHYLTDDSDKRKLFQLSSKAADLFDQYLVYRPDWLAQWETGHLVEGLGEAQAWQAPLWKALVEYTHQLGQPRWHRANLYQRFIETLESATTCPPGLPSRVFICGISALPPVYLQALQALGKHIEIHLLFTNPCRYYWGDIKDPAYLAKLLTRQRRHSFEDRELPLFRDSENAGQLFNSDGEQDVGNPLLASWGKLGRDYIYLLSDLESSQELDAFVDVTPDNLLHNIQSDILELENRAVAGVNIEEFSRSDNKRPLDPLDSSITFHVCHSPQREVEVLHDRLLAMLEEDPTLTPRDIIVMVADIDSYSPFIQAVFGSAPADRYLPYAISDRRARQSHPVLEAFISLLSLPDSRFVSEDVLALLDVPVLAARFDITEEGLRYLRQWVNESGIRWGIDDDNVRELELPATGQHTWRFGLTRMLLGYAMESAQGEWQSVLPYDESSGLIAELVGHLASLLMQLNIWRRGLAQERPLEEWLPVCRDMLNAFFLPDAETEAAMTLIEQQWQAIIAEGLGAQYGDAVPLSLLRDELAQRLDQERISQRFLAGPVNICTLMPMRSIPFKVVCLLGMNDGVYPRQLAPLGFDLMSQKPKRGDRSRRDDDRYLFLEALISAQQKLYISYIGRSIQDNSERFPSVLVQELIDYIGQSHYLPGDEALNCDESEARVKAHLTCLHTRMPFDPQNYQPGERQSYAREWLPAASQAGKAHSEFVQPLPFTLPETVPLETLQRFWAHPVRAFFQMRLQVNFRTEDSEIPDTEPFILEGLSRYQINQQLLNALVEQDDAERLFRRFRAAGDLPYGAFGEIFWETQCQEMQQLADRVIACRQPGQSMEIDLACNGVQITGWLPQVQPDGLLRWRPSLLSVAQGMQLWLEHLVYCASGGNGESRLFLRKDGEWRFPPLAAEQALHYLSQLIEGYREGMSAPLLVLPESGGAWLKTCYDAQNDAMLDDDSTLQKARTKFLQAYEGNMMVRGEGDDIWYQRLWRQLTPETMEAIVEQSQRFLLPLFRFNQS
# T1 sequence (P08394 whole entry): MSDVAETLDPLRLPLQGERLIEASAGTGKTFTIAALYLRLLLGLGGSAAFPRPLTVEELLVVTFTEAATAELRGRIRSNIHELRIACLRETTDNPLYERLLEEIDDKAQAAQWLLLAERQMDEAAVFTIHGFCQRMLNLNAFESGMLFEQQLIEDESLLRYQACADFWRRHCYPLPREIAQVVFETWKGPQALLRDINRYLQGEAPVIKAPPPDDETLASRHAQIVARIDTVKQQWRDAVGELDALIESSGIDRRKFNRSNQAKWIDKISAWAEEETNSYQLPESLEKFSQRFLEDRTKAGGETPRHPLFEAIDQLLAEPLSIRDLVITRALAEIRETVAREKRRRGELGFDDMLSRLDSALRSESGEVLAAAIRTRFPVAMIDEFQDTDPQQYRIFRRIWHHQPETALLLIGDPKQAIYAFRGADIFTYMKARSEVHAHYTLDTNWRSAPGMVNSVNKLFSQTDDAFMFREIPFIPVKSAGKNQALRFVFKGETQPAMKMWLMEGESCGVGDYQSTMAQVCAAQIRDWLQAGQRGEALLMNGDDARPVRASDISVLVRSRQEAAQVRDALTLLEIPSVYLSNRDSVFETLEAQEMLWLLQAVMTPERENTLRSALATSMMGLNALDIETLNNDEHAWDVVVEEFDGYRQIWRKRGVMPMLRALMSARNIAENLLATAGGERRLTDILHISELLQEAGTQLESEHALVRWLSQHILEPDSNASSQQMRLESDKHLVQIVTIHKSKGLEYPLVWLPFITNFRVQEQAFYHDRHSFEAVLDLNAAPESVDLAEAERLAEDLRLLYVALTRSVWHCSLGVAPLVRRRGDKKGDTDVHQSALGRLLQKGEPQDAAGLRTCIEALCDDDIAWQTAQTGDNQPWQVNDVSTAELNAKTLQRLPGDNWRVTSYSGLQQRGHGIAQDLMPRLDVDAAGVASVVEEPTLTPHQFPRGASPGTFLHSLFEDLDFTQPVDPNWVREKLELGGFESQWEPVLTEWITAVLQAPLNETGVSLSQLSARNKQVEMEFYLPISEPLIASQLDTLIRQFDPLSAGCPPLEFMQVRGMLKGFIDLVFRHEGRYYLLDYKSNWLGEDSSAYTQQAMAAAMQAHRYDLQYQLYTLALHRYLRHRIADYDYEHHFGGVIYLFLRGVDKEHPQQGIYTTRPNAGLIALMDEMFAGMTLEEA
# cells = type: functional
# [4] = Counterscreen for AddAB inhibitors: absorbance-based bacterial cell-based high throughput dose response assay for inhibitors of bacterial viability. [Related pubchem assays (depositor defined):AID435030, AID449728, AID449731, AID488942, AID488955, AID488956]; type: functional
# [5] = THP-1 cell cytotoxicity, dose response, cytotoxicity control for non-replicating M. tuberculosis project (AID 489025); type: functional
# [6] = cytotoxicity toward NIH3T3 fibroblasts, dose response, counter-screen, cell-based, ATP luminescence, mouse fibroblasts (AID 2010); type: functional;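 also: cells exposed to compound for about 90 hours before reading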
# Streptococcus = assay: Group A Streptococcus viability loss, dose response, counter-screen for streptokinase expression inhibitor project, luminescence, BacTiterGlo (AID 1915); type: functional, organism-based;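 also: potency for reduction of bacterial viability or growth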
# Streptokinase A = target: T2, Streptokinase A (Streptococcus pyogenes serotype M1, UniProt P10520); assay: S. pyogenes streptokinase expression inhibitors, potency, dose response, plasminogen activation absorbance, OD405 (AID 1914); type: functional, Streptococcus pyogenes M1 GAS;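 also: secreted streptokinase activity via plasminogen activation per viability signal from cell pellet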
# T2 sequence (P10520 whole entry): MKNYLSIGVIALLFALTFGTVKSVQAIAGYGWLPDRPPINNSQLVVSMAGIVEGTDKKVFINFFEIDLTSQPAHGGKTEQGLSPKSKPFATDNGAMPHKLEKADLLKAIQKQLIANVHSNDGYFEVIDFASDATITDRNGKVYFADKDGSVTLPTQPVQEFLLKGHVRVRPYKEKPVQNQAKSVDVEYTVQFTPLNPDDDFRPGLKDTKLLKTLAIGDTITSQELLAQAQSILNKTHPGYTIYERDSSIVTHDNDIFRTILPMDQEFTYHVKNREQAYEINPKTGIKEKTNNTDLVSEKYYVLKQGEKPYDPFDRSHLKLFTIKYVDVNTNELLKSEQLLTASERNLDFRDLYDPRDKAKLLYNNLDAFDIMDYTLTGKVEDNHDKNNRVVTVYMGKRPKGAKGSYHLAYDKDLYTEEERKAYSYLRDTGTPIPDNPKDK
# [7] = test system: Streptococcus sp. 'group A'; assay: growth inhibition of control SK(-) GAS strain, dose response, counter-screen for streptokinase expression inhibitor project, luminescence, kanamycin, BacTiterGlo, confirmation (AID 1900); type: functional, organism-based
# [8] = target: Heat shock protein HSP 90-alpha (Homo sapiens, UniProt P07900); type: functional, organism-based
# [9] = inhibitors of intracellular T. cruzi replication, confirmation, NIH3T3 host cells, beta-gal luminescence (AID 2044); type: functional, cell-based;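 also: intracellular parasites grown in NIH/3T3 mouse fibroblasts as host cells; luminescent beta-galactosidase reporter signal from transgenic T. cruzi replicating inside host cells; inhibitors lower the luminescence signal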
# [10] = target: FAD-linked sulfhydryl oxidase ALR (Homo sapiens, UniProt P55789); assay: inhibitors of human ALR sulfhydryl oxidase, dose response, biochemical, H2O2 detection, luminescence, cherry-pick (AID 493248)
# Chain of FAD-linked sulfhydryl oxidase ALR (P55789 whole entry): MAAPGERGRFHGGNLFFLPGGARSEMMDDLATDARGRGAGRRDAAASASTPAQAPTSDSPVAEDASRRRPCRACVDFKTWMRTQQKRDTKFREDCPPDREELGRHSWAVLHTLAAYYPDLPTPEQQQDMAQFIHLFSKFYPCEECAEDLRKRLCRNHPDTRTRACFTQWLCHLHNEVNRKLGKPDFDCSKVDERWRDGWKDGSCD
# [11] = target: Glucose-6-phosphate 1-dehydrogenase (Homo sapiens, UniProt P11413); assay: human G6PD enzyme inhibitors, dose response, selectivity assay for P. falciparum G6PD inhibitor project, biochemical, fluorescence (AID 504792); type: functional
# Chain of Glucose-6-phosphate 1-dehydrogenase (P11413 whole entry): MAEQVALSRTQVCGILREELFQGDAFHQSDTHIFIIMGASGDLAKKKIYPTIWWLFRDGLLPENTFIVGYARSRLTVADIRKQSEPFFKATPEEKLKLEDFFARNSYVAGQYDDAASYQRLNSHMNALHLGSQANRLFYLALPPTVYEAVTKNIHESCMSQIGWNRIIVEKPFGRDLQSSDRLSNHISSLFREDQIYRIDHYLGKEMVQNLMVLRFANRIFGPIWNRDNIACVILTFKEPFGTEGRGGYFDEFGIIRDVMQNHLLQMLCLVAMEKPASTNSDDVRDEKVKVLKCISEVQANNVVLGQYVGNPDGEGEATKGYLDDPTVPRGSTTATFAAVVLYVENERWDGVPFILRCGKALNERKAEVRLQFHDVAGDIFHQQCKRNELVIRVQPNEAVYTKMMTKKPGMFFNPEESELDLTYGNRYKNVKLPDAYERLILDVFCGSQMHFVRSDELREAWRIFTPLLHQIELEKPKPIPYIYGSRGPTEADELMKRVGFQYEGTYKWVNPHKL
# [12] = target: T3, Heat shock factor protein 1 (Mus musculus, UniProt P38532); assay: inhibition of MG132-induced HSE-luciferase signal, confirmation, cell-based, NIH3T3, luminescence, dose retest (AID 2382); type: functional;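 also: NIH3T3 fibroblasts with HSF1-driven luciferase reporter stressed by proteasome inhibitor MG132; luminescence from HSF1-driven luciferase expression after 8 hours of MG132 stress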
# T3 sequence (P38532 whole entry): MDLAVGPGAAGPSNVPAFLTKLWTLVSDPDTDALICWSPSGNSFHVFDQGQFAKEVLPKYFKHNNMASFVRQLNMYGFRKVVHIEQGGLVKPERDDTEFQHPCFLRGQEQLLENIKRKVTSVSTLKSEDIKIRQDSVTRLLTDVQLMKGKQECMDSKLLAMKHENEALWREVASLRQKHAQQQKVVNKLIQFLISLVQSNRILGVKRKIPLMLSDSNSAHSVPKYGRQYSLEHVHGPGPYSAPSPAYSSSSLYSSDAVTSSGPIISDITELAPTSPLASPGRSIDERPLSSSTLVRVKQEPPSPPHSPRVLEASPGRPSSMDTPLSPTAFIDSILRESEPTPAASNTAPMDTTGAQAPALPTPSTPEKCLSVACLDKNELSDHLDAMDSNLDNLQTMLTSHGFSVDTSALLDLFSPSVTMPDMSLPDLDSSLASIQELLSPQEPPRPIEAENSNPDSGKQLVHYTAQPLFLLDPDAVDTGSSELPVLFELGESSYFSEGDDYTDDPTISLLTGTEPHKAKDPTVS
structure (smiles),measurement,setting,value
CCN(CC)CCNCc1ccc(-c2ccc(Cl)cc2)o1,AC50,[1],20.9 µM (active)
same,AC50,[2],8.94 µM (active)
NC(=NOC(=O)c1ccccc1Cl)c1ncc([N+](=O)[O-])s1,CC50,[3],> 20 µM (active)
same,IC50,Exodeoxyribonuclease V,> 119 µM (inactive)
same,IC50,cells,3.81 µM (active)
same,IC50,[4],> 119 µM (inactive)
same,CC50,[5],34.4 µM (active)
CCCC(=O)NC(c1ccco1)c1cc(Cl)c2cccnc2c1O (configuration not stated),EC50,[6],5.04 µM (active)
same,EC50,Streptococcus,32 µM (active)
same,EC50,Streptokinase A,> 150 µM (not active)
same,EC50,[7],1.18 µM (active)
same,IC50,Exodeoxyribonuclease V,> 119 µM (inactive)
same,AC50,[8],4.25 µM (active)
same,EC50,[9],3.44 µM (active)
same,IC50,[4],> 119 µM (inactive)
COc1ccc(CCNC(=O)c2cc(-c3ccc(Cl)c(Cl)c3)oc2C)cc1,EC50,Streptococcus,22.4 µM (active)
same,EC50,Streptokinase A,6.21 µM (inconclusive)
same,EC50,[7],7.72 µM (active)
same,AC50,[1],48.4 µM (active)
same,AC50,[2],3.04 µM (active)
Oc1ccc(C23CC4CC(CC(C4)C2)C3)cc1O,AC50,[10],4.17 µM (active)
same,IC50,[11],> 80 µM (inactive)
COc1ccc2nc(NC(=O)CCNC(=O)c3ccco3)sc2c1,IC50,Exodeoxyribonuclease V,> 119 µM (inactive)
same,IC50,[4],> 119 µM (inactive)
CC(C)(C)c1ccc2c(c1)OC(C(=O)N/N=C\c1ccc[nH]1)CO2 (configuration not stated),EC50,[12],0.436 µM (active)
same,AC50,[1],23 µM (active)
same,AC50,[2],1.94 µM (active)
